# Data published in patent publication US12702676B2, “Fosfomycin dosing regimens” (priority 2017, dated 2026).
# Columns and labels:
# [1] = ZEUS Phase 2/3 trial, safety (adverse events)
# [2] = tested on: baseline bacterial pathogen in cUTI or AP; assay: ZEUS Phase 2/3 noninferiority trial, efficacy at TOC in hospitalized adults; format: in vivo, human
# Method: Oral step-down therapy was prohibited (FIG. 4).
# A post-hoc analysis using pulsed-field gel electrophoresis (PFGE) was performed to molecularly type all baseline and TOC pathogens (both treatment arms), in order to confirm microbiological eradication/persistence; a total of 20 post-baseline pathogens were identified as unique, unrelated strains compared to baseline.
# [3] = MITT Safety Population (n = 233 ZTI-01, n = 231 P-T)
# [4] = Bacteremia, m-MITT (N1 19 ZTI-01, 13 P-T)
# [5] = CE-TOC (N1 199 ZTI-01, 196 P-T)
# [6] = ME-TOC (N1 155 ZTI-01, 145 P-T)
# [7] = Original Analysis, ME-TOC (N1 155 ZTI-01, 145 P-T)
# [8] = Original Analysis, m-MITT (N1 184 ZTI-01, 178 P-T)
# [9] = Post-hoc Analysis Using PFGE Typing, ME-TOC (N1 155 ZTI-01, 145 P-T)
# [10] = Post-hoc Analysis Using PFGE Typing, m-MITT (N1 184 ZTI-01, 178 P-T)
# [11] = SIRS, m-MITT (N1 62 ZTI-01, 52 P-T)
# [12] = m-MITT (N1 184 ZTI-01, 178 P-T)
substance,measurement,setting,value
piperacillin/tazobactam [P-T],Any AEs,[1]; [3],74 (32.0%) n (%)
same,Any TEAEs,[1]; [3],74 (32.0%) n (%)
same,Drug-related SAE,[1]; [3],1 (0.4%) n (%)
same,Drug-related TEAEs,[1]; [3],32 (13.9%) n (%)
same,SAEs,[1]; [3],6 (2.6%) n (%)
same,Serious TEAEs leading to study drug discontinuation,[1]; [3],1 (0.4%) n (%)
same,TEAEs leading to study drug discontinuation,[1]; [3],6 (2.6%) n (%)
same,TEAEs: Mild,[1]; [3],49 (21.2%) n (%)
same,TEAEs: Moderate,[1]; [3],38 (16.5%) n (%)
same,TEAEs: Severe,[1]; [3],4 (1.7%) n (%)
same,SAE related to study drug (1 in each treatment group),[1]; in vivo,renal insufficiency
same,Clinical Response at TOC: Eradication,[2]; [4],10 (76.9%) n (%)
same,Clinical Response at TOC: Indeterminate,[2]; [4],0 (0%) n (%)
same,Clinical Response at TOC: Persistence,[2]; [4],3 (23.1%) n (%)
same,Overall Response at TOC: Eradication,[2]; [4],5 (38.5%) n (%)
same,Overall Response at TOC: Indeterminate,[2]; [4],0 (0%) n (%)
same,Overall Response at TOC: Persistence,[2]; [4],8 (61.5%) n (%)
same,Per-patient Microbiological Response at TOC: Eradication,[2]; [4],6 (46.2%) n (%)
same,Per-patient Microbiological Response at TOC: Indeterminate,[2]; [4],0 (0%) n (%)
same,Per-patient Microbiological Response at TOC: Persistence,[2]; [4],7 (53.8%) n (%)
same,Clinical Response at TOC: Cure,[2]; [5],182 (92.9%) n (%)
same,Clinical Response at TOC: Failure,[2]; [5],14 (7.1%) n (%)
same,Clinical Response at TOC: Cure,[2]; [6],135 (93.1%) n (%)
same,Clinical Response at TOC: Failure,[2]; [6],10 (6.9%) n (%)
same,Clinical Response at TOC: Cure,"[2]; MITT (N1 233 ZTI-01, 231 P-T)",212 (91.8%) n (%)
same,Clinical Response at TOC: Failure,"[2]; MITT (N1 233 ZTI-01, 231 P-T)",16 (6.9%) n (%)
same,Clinical Response at TOC: Indeterminate,"[2]; MITT (N1 233 ZTI-01, 231 P-T)",3 (1.3%) n (%)
same,Microbiological Response at TOC: Eradication,[2]; [7],86 (59.3%) n (%)
same,Microbiological Response at TOC: Persistence,[2]; [7],59 (40.7%) n (%)
same,Microbiological Response at TOC: Eradication,[2]; [8],100 (56.2%) n (%)
same,Microbiological Response at TOC: Indeterminate,[2]; [8],9 (5.1%) n (%)
same,Microbiological Response at TOC: Persistence,[2]; [8],69 (38.8%) n (%)
same,Microbiological Response at TOC: Eradication,[2]; [9],93 (64.1%) n (%)
same,Microbiological Response at TOC: Persistence,[2]; [9],52 (35.9%) n (%)
same,Microbiological Response at TOC: Eradication,[2]; [10],107 (60.1%) n (%)
same,Microbiological Response at TOC: Indeterminate,[2]; [10],9 (5.1%) n (%)
same,Microbiological Response at TOC: Persistence,[2]; [10],62 (34.8%) n (%)
same,Clinical Response at TOC: Eradication,[2]; [11],48 (92.3%) n (%)
same,Clinical Response at TOC: Indeterminate,[2]; [11],2 (3.8%) n (%)
same,Clinical Response at TOC: Persistence,[2]; [11],2 (3.8%) n (%)
same,Overall Response at TOC: Eradication,[2]; [11],39 (75.0%) n (%)
same,Overall Response at TOC: Indeterminate,[2]; [11],2 (3.8%) n (%)
same,Overall Response at TOC: Persistence,[2]; [11],11 (21.2%) n (%)
same,Patient Microbiological response at TOC: Eradication,[2]; [11],40 (76.9%) n (%)
same,Patient Microbiological response at TOC: Indeterminate,[2]; [11],2 (3.8%) n (%)
same,Patient Microbiological response at TOC: Persistence,[2]; [11],10 (19.2%) n (%)
same,Clinical Response at TOC: Cure,[2]; [12],163 (91.6%) n (%)
same,Clinical Response at TOC: Failure,[2]; [12],12 (6.7%) n (%)
same,Clinical Response at TOC: Indeterminate,[2]; [12],3 (1.7%) n (%)
same,overall success rates at TOC,"[2]; m-MITT population, clinical cure plus microbiologic eradication, 6 g ZTI-01 q8h or 4.5 g P-T q8h IV",54.5%
same,overall success rates using unique pathogen strains typed by PFGE,"[2]; post-hoc analysis, m-MITT, TOC",57.3%
